# Target: hGYS1 enzyme (recombinant hGYS1/GN1 protein) (Homo sapiens (Human), UniProt P13807)
# Test: GYS1 coupled enzyme assay (PK/LDH)
# Format: biochemical
# Details: hGYS1/GN1 50 nM, UDP-Glucose 0.8 mM, G6P 1 mM; geometric mean of at least 2 runs
# Text: The GYS1 coupled enzyme assay is a kinetic biochemical assay that indirectly quantifies the rate of glycogen synthesis by coupling the conversion of GYS1 substrate UDP-glucose into UDP with downstream enzymatic reactions. UDP is released from UDP-glucose as glucose monomers are linked into the growing glycogen strand by GYS1. The coupled assay then proceeds with pyruvate kinase utilizing UDP and phospho(enol)pyruvate (PEP) to form pyruvate. Lactate dehydrogenase then converts pyruvate and NADH into lactate and NAD+. Oxidation of NADH to NAD+ can be measured continuously with a plate reader by quantifying the decrease in NADH absorbance at 340 nm over time.
# Compounds that inhibit the hGYS1 enzyme and, subsequently, the downstream conversion of NADH to NAD+, were tested using assay ready plates (black, clear bottom 384 well plates) in a final DMSO reaction volume of 2.5% DMSO. The Assay Buffer contained 50 mM Tris pH 7.5, 2 mM MgCl2, and 100 mM KCl. Fresh stocks of BSA at a final concentration of 0.02% and TCEP at 1 mM were added before splitting buffer into hGYS1 buffer and substrate buffer. To the hGYS1 buffer, rabbit liver glycogen was added at a final concentration of 0.2% glycogen. Glucose-6-Phosphate was added at 1 mM, recombinant hGYS1/GN1 protein was added at 50 nM to the substrate buffer, phosphoenolpyruvate (PEP) was added at 2 mM, UDP-Glucose was added at 0.8 mM, NADH) was added at 0.6 mM, and Pyruvate Kinase/Lactate Dehydrogenase was added at 20 units/mL. The reaction was initiated by mixing hGYS1 buffer and substrate buffer at a 1:1 ratio. Both buffers were plated using a liquid dispensing device with hGYS1 buffer plated first followed by the substrate buffer. Plates were spun briefly to eliminate air bubbles and are immediately read in continuous mode at an absorbance of 340 nm, for 10 time points in one-minute increments, for a total of 10 minutes. The slope from these 10 time points was normalized to the positive and negative control wells. The duplicate % inhibition values are then averaged and fit to a Hill equation for dose response according to the Levenberg-Marquardt algorithm with the Hill equation maximum set to 100 and the minimum set to 0.
# Unless otherwise specified, IC50 values are reported as the geometric mean of at least 2 assay runs on separate days. Each run represents the average of a technical replicate, where each compound was assayed twice in the same plate. […] A superscript “#” symbol in Table 2 indicates results from a single assay run.
# Sequence of hGYS1 enzyme (recombinant hGYS1/GN1 protein) (P13807 whole entry): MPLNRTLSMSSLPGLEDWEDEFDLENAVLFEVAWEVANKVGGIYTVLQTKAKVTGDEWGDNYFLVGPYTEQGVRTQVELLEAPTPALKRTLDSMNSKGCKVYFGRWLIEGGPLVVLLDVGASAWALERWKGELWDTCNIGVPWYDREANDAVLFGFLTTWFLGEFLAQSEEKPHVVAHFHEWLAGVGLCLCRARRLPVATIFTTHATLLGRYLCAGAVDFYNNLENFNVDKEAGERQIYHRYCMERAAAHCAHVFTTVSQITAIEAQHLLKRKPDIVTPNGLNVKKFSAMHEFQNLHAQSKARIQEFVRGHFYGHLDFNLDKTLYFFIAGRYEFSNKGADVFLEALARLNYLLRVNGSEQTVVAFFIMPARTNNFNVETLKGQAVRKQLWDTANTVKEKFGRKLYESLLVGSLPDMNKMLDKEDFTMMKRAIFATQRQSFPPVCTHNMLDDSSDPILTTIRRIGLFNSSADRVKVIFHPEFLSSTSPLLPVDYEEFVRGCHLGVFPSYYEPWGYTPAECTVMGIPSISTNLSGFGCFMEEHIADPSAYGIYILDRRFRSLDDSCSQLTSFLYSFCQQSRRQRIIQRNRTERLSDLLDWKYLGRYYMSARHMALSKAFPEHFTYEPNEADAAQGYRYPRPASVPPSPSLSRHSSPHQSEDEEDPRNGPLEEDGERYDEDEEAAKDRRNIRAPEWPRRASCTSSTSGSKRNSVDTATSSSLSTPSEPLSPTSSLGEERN
# Sequence of hGYS1 enzyme (recombinant hGYS1/GN1 protein) (P46976 whole entry partner): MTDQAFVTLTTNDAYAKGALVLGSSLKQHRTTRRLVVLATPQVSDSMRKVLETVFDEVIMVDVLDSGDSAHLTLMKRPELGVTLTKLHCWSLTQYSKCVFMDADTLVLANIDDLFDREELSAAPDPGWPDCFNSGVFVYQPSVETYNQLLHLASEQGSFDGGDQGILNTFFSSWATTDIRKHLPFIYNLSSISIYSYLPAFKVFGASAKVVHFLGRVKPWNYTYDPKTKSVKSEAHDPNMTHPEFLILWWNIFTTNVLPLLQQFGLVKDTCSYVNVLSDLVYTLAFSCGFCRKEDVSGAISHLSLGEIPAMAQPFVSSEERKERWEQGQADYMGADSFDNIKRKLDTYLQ
row,IC50,SMILES
1,47 nM,"Cc1cc(CC(=O)N2C[C@H](F)C[C@H]2C(=O)N[C@@H](c2ccccc2)c2ccc(C(C)C)cc2)[nH]n1 [Compound 54, (2S,4R)-4-fluoro-1-[2-(3-methyl-1H-pyrazol-5-yl)acetyl]-N-[(S)-phenyl[4-(propan-2-yl)phenyl]methyl]pyrrolidine-2-carboxamide]"
2,466 nM,"O=C(N[C@@H](c1ccccc1)c1ccc(C2CC2)c(F)n1)[C@@H]1[C@@H](O)[C@H](F)CN1C(=O)Cn1nnnc1C(F)F [Compound 763, (2S,3R,4R)-N-[(S)-(5-cyclopropyl-6-fluoropyridin-2-yl)(phenyl)methyl]-1-{2-[5-(difluoromethyl)-1H-1,2,3,4-tetrazol-1-yl]acetyl}-4-fluoro-3-hydroxypyrrolidine-2-carboxamide]"
3,789 nM,"CCn1nccc1C(=O)N1C[C@H](F)C[C@H]1C(=O)N[C@@H](c1ccccc1)c1ccc(C(C)C)cc1 [Compound 53, (2S,4R)-1-(1-ethyl-1H-pyrazole-5-carbonyl)-4-fluoro-N-[(S)-phenyl[4-(propan-2-yl)phenyl]methyl]pyrrolidine-2-carboxamide]"
4,472 nM,"CC(=O)Nc1cc(C(=O)N2C[C@H](F)C[C@H]2C(=O)N[C@@H](c2ccccc2)c2ccc(C(C)C)cc2)ccn1 [Compound 72, (2S,4R)-1-(2-acetamidopyridine-4-carbonyl)-4-fluoro-N-[(S)-phenyl[4-(propan-2-yl)phenyl]methyl]pyrrolidine-2-carboxamide]"
5,1740 nM,"O=C(NC(c1ccccc1)c1ccc(C2CCC2)c(F)c1)[C@@H]1C[C@@H](F)CN1C(=O)Cc1cnn[nH]1 (single isomer, unassigned) [Compound 673, (2S,4R)-N-[(R) or (S)-(4-cyclobutyl-3-fluorophenyl)(phenyl)methyl]-4-fluoro-1-[2-(1H-1,2,3-triazol-5-yl)acetyl]pyrrolidine-2-carboxamide]"
6,1990 nM,"CC(C)c1ccc([C@@H](NC(=O)[C@@H]2C[C@@H](F)CN2C(=O)c2cc(-n3ccnc3)ccn2)c2ccccc2)cc1 [Compound 707, (2S,4R)-4-fluoro-1-[4-(1H-imidazol-1-yl)pyridine-2-carbonyl]-N-[(S)-phenyl[4-(propan-2-yl)phenyl]methyl]pyrrol-idine-2-carboxamide]"
7,446 nM,"C#CCCCCCC(=O)N1CCC[C@H]1C(=O)N[C@@H](c1ccccc1)c1ccc(C(C)C)cc1 [Compound 701, (2S)-1-(oct-7-ynoyl)-N-[(S)-phenyl[4-(propan-2-yl)phenyl]methyl]pyrrol-idine-2-carboxamide]"
8,343 nM,"CC(Cn1cncn1)C(=O)N1C[C@H](F)C[C@H]1C(=O)N[C@@H](c1ccccc1)c1ccc(C(C)C)cc1 (stereo partly drawn) [Compound 120, (2S,4R)-4-fluoro-1-[2-methyl-3-(1H-1,2,4-triazol-1-yl)propanoyl]-N-[(S)-phenyl[4-(propan-2-yl)phenyl]methyl]pyrrolidine-2-carboxamide]"
9,695 nM,"CC(C)c1ccc([C@@H](NC(=O)[C@@H]2C[C@@H](F)CN2C(=O)CN2CCNCC2)c2ccccc2)cc1 [Compound 234, (2S,4R)-4-fluoro-N-[(S)-phenyl[4-(propan-2-yl)phenyl]methyl]-1-[2-(piperazin-1-yl)acetyl]pyrrolidine-2-carboxamide]"
10,555 nM,"CC(C)c1ccc(C(NC(=O)[C@@H]2C[C@@H](F)CN2C(=O)Cc2cnn[nH]2)c2cccc(N)n2)cc1F (single isomer, unassigned) [Compound 621, (2S,4R)-N-[(R) or (S)-(6-aminopyridin-2-yl)[3-fluoro-4-(propan-2-yl)phenyl]methyl]-4-fluoro-1-[2-(1H-1,2,3-triazol-5-yl)acetyl]pyrrolidine-2-carboxamide]"
11,353 nM,"NCc1nnc(CC(=O)N2C[C@H](F)C[C@H]2C(=O)N[C@@H](c2ccccc2)c2ccc(C3CC3)c(F)c2)o1 [Compound 489, (2S,4R)-1-{2-[5-(aminomethyl)-1,3,4-oxadiazol-2-yl]acetyl}-N-[(S)-(4-cyclopropyl-3-fluorophenyl)(phenyl)methyl]-4-fluoropyrrolidine-2-carboxamide]"
12,1140 nM,"COc1cc(C(=O)N2C[C@H](F)C[C@H]2C(=O)N[C@@H](c2ccccc2)c2ccc(C(C)C)cc2)nn1C [Compound 709, (2S,4R)-4-fluoro-1-(5-methoxy-1-methyl-1H-pyrazole-3-carbonyl)-N-[(S)-phenyl[4-(propan-2-yl)phenyl]methyl]pyrrol-idine-2-carboxamide]"
13,483 nM,"CC(=O)Nc1cccc([C@H](NC(=O)[C@@H]2C[C@@H](F)CN2C(=O)Cc2cn(C)nn2)c2ccc(C(C)C)cc2)c1 [Compound 649, (2S,4R)-N-[(R)-(3-acetamidophenyl) [4-(propan-2-yl)phenyl]methyl]-4-fluoro-1-[2-(1-methyl-1H-1,2,3-triazol-4-yl)acetyl]pyrrolidine-2-carboxamide]"
14,469 nM,"CC(C)c1ccc([C@@H](NC(=O)[C@@H]2CCCN2C(=O)CO)c2ccccc2)cc1 [Compound 211, (2S)-1-(2-hydroxyacetyl)-N-[(S)-phenyl[4-(propan-2-yl)phenyl]methyl]pyrrolidine-2-carboxamide]"
15,121 nM,"CC(=O)N1CC(CC(=O)N2C[C@H](F)C[C@H]2C(=O)N[C@@H](c2ccccc2)c2ccc(C(C)C)cc2)Oc2ccccc21 (stereo partly drawn) [Compound 116, (2S,4R)-1-[2-(4-acetyl-3,5-dihydro-2H-1,4-benzoxazin-2-yl)acetyl]-4-fluoro-N-[(S)-phenyl[4-(propan-2-yl)phenyl]methyl]pyrrolidine-2-carboxamide]"
16,375 nM,"CC(=O)N(C)C(C)C(=O)N1C[C@H](F)C[C@H]1C(=O)N[C@@H](c1ccccc1)c1ccc(C(C)C)cc1 (stereo partly drawn) [Compound 71, (2S,4R)-4-fluoro-1-[2-(N-methylacetamido)propanoyl]-N-[(S)-phenyl[4-(propan-2-yl)phenyl]methyl]pyrrolidine-2-carboxamide]"
17,854 nM,"CC(=O)N1CC(Oc2ccc(C(=O)N3C[C@H](F)C[C@H]3C(=O)N[C@@H](c3ccccc3)c3ccc(C(C)C)cc3)cc2)C1 [Compound 112, (2S,4R)-1-{4-[(1-acetylazetidin-3-yl)oxy]benzoyl}-4-fluoro-N-[(S)-phenyl[4-(propan-2-yl)phenyl]methyl]pyrrolidine-2-carboxamide]"
18,336 nM,"CC(C)c1ccc([C@H](NC(=O)[C@@H]2C[C@@H](F)CN2C(=O)Cc2nnn[nH]2)c2ccccc2)cc1F [Compound 329, (2S,4R)-4-fluoro-N-[(R)-[3-fluoro-4-(propan-2-yl)phenyl](phenyl)methyl]-1-[2-(1H-1,2,3,4-tetrazol-5-yl)acetyl]pyrrolidine-2-carboxamide]"
19,58 nM,"CC(C)c1ccc([C@@H](NC(=O)[C@@H]2C[C@@H](F)CN2C(=O)CCc2cnc[nH]2)c2ccccc2)cc1 [Compound 45, (2S,4R)-4-fluoro-1-[3-(1H-imidazol-5-yl)propanoyl]-N-[(S)-phenyl[4-(propan-2-yl)phenyl]methyl]pyrrolidine-2-carboxamide]"
20,306 nM,"CC(=O)N1CC[C@@H](C)[C@H](C(=O)N2C[C@H](F)C[C@H]2C(=O)N[C@@H](c2ccccc2)c2ccc(C(C)C)cc2)C1 [Compound 170, (2S,4R)-1-[(3S,4R)-1-acetyl-4-methylpiperidine-3-carbonyl]-4-fluoro-N-[(S)-phenyl[4-(propan-2-yl)phenyl]methyl]pyrrolidine-2-carboxamide]"
21,46 nM,"CC(C)c1ccc([C@@H](NC(=O)[C@@H]2C[C@@H](F)CN2C(=O)Cn2cc(Cl)cn2)c2ccccc2)cc1 [Compound 20, (2S,4R)-1-[2-(4-chloro-1H-pyrazol-1-yl)acetyl]-4-fluoro-N-[(S)-phenyl[4-(propan-2-yl)phenyl]methyl]pyrrolidine-2-carboxamide]"
22,705 nM,"CC(C)c1ccc([C@@H](NC(=O)[C@@H]2C[C@@H](F)CN2C(=O)c2cccn3c(=O)[nH]nc23)c2ccccc2)cc1 [Compound 74, (2S,4R)-4-fluoro-1-{3-oxo-2H,3H-[1,2,4]triazolo[4,3-a]pyridine-8-carbonyl}-N-[(S)-phenyl[4-(propan-2-yl)phenyl]methyl]pyrrolidine-2-carboxamide]"

row,SMILES,IC50
1,"CC(=O)N1C2CCC1[C@@H](C(=O)N1C[C@H](F)C[C@H]1C(=O)N[C@@H](c1ccccc1)c1ccc(C(C)C)cc1)C2 (stereo partly drawn) [Compound 157, (2S,4R)-1-[(2S)-7-acetyl-7-azabicyclo[2.2.1]heptane-2-carbonyl]-4-fluoro-N-[(S)-phenyl[4-(propan-2-yl)phenyl]methyl]pyrrolidine-2-carboxamide]",392 nM

# — patent publication US11814367B2, “Inhibitors of glycogen synthase 1 (GYS1) and methods of use thereof” (Maze Therapeutics, Inc., priority 2021, dated 2023)
